Experimental data reported in patent US20030059511A1, “Sweetener compositions and uses thereof” (AJINOMOTO CO., INC., priority 1999, published 2003).

Assays:
[1] = Taste characteristics in a cola drink (9 items, similarity index vs cola drink containing 10% sucrose); assay type: in vivo, human; conditions: non-carbonated cola drink, PSE 10%, vs cola drink with 10% sucrose; smaller = closer to sucrose; 8 panelists
Description: The following experiments were performed in the same way as that of Example 2. Instead of aqueous solution, the cola drink of each of derivatives 1 to 9 having a sweetness level equivalent to that of PSE 10% was prepared, and compared with the cola drink containing 10% sucrose. The evaluation method and so on were same as that of Example 2.
When carbon dioxide is blown in the cola drink, the carbonated cola drink is prepared, however, the taste of the cola drink can be compared more easily in that without carbon dioxide. Thus the sensory evaluation of non-carbonated cola drink was performed.
The composition of the cola drink employed was same as that of Example 1.
The similarity indexes were calculated as those of aqueous solutions. The smaller the similarity index becomes, the better the taste balances, and the closer the taste is to the taste characteristics (quality) of sucrose. The total taste becomes preferable. The similarity indexes of each derivatives are shown as follows. […]
The following experiments were conducted in the same way as that of Example 15. Instead of aqueous solution, the cola drink of each of derivatives 1 to 9 having a sweetness level equivalent to that of PSE 10% was prepared, and compared with the cola drink containing 10% sucrose. All of the evaluation method and so on were same as those of Example 15.
When carbon dioxide is blown in the cola drink, the carbonated cola drink is prepared, however, the taste of the cola drink can be compared more easily in that without carbon dioxide. Thus the non-carbonated cola drink was organoleptically evaluated.
The composition of the cola drink employed was same as that of Example 14.
The similarity indexes were calculated as those of aqueous solutions. The smaller the similarity index becomes, the better the taste balances, and the closer the taste is to the taste characteristics (quality)of sucrose. The total taste becomes preferable. The similarity indexes of each of the derivatives are shown as follows. […]

[2] = Taste characteristics in an aqueous solution (9 items, similarity index vs aqueous 10% sucrose solution); assay type: in vivo, human; conditions: PSE 10%, smaller = closer to sucrose, 8 panelists
Description: The following experiments were performed using the water obtained by ion exchanging and further distilling the water.
An aqueous solution of each of derivatives 1 to 9 having a sweetness level equivalent to that of PSE 10% was prepared, and compared with aqueous 10% sucrose solution with respect to the following 9 items, i.e., “onset of the taste”, “round taste”, “clear taste”, “lingering taste”, “peculiar taste”, “heavy taste”, “bitter taste”, “astringent taste” and “irritation”. The results were determined as 5 levels (−2 point: very weak, −1 point: a little weak, 0 point: same, +1 point: a little strong, +2 point: very strong) by 8 panelists, and the average points were calculated. The sample solutions of the derivatives equivalent to PSE 10%, were prepared by using the magnification of sweetness intensity measured in Example 1, and the amounts of each derivatives to be used were as follows.
Next, the total of the absolute value of the deviation from sucrose in each of the evaluation items consisting of the onset of the taste, the round taste, the clear taste, the lingering taste, the peculiar taste, the heavy taste, the bitter taste, the astringent taste and the irritation was divided by 9 (total number of items) to calculate the similarity (which is referred to as “similarity index”). The smaller the similarity index becomes, the better the taste balances, and the closer the taste is to the taste characteristics (quality) of sucrose. The total taste becomes preferable. The similarity indexes of each derivatives are shown as follows.
To the aqueous solution of derivative 1 having a sweetness level equivalent to that of PSE 10%, salt was added as final concentratins of 0.1%, 0.2% and 0.5% to compare with the aqueous solution of 10% sucrose for by 2 points comparison method (n=8) and evaluate the characteristics of the taste.
The sensory evaluation was performed by the same way as Example 6.
The following experiments were conducted using the water obtained by ion exchanging and further distilling tap water.
An aqueous solution of each of derivatives 1 to 9 having a sweetness level equivalent to that of PES 10% was prepared, and compared with aqueous 10% sucrose solution with respect to 9 items, namely, “the onset of the taste”, “round taste”, “clear taste”, “lingering taste”, “peculiar taste”, “heavy taste”, “bitter taste”, “astringent taste” and “irritation”. The results were determined as 5 levels (−2 point: very weak, −1 point: a little weak, 0 point: same, +1 point: a little strong, +2 point: very strong) by 8 panelists, and the average points were calculated.
Next, the total of the absolute value of the deviation from sucrose in each of the evaluation items consisting of onset of the taste, round taste, clear taste, lingering taste, peculiar taste, heavy taste, bitter taste, astringent taste and irritation was divided by 9 (total number of items) to calculate the similarity (which is refer to as “similarity index”). The smaller the similarity index becomes, the better the taste balances, and the closer the taste is to the taste characteristics (quality) of sucrose. The total taste becomes preferable. The similarity indexes of each of the derivatives are shown as follows.

[3] = Magnification of sweetness intensity in the cola drink (sensory evaluation against sucrose cola drinks); assay type: in vivo, human
From the text: And the magnification of sweetness intensity in the cola drink can be also determined by the same method compared to the control solution of cola drink containing 10% sucrose.
The composition of cola drink is as follows.
As for the concentration of the references, the sucrose concentrations of previous (a) to (e) were used. In consequence, the magnification of sweetness intensity in the cola drink of derivative 1 was 22600 times, and that of derivative 2 was 4900 times.
And the magnification of sweetness intensity in the cola drink can be also determined by the same method compared to the reference solution of cola drink containing 10% sucrose.
The components of cola drink is as follows.
As for the concentration of the references, the sucrose concentrations of previous (a) to (e) were used. As the results, the magnification of sweetness intensity in the cola drink of derivative 1 was 22600 times, and that of derivative 2 was 4900 times.
And the magnification of sweetness in the cola drink can be also determined by the same method compared to the control solution of cola drink containing 10% sucrose.
As for the concentration of the references, the sucrose concentrations of previous (a) to (e) were used. As a result, the magnification of sweetness intensity in the cola drink of derivative 1 was 22600 times, and that of derivative 2 was 4900 times.

[4] = Measurement of the magnification of sweetness intensity in aqueous solution (sensory evaluation against sucrose solutions); assay type: in vivo, human; conditions: aqueous solution
Description: An aqueous solution was prepared by diluting derivative 2 to be PSE 10% concentration (15.5 mg/1000 ml=10/6500 g/100 ml), assuming that the intensity of sweetness of derivative 2 was 6500 times that of sucrose. Separately, aqueous sucrose solutions having sucrose concentrations of (a)6.94%, (b)8.33%, (c)10%, (d)12%, and (e)14.4% were prepared. The sensory evaluation was performed by determining which sucrose solution was closest to the solution of derivative 2 in the sweetness intensity. The result of calculation of the average of points of 20 panelists was 2.25 point.
The intensity of sweetness of the solution of derivative 2 was 8.75% according to the following equation: (10.0−8.33)×0.25+8.33=8.75. Accordingly, the intense sweetness of derivative 2 was 5600 (=8.75/0.00155) times that of sucrose. According to the same experiment, the intensity of sweetness of derivative 1 was 22600 times that of sucrose. Furthermore, the magnification of sweetness intensity of other derivatives (3 to 9) can be determined by the same method.
The intensity of sweetness of the solution of derivative 2 was 8.75% according to the following equation: (10.0−8.33)×0.25+8.33=8.75. Accordingly, the intensity of sweetness of derivative 2 was 5600 (=8.75/0.00155) times that of sucrose. According to the same experiment, the intensity of sweetness of derivative 1 was 22600 times that of sucrose. Furthermore, the magnification of sweetness intensity of other derivatives (3 to 9) can be determined by the same method.
An aqueous solution was prepared by diluting derivative 2 to be PSE 10% concentration (15.5 mg/1000 ml=10/6500 g/100 ml), assuming that the intense sweetness of derivative 2 was 6500 times that of sucrose. Separately, aqueous sucrose solutions having sucrose concentrations of (a)6.94%, (b)8.33%, (c)10%, (d)12%, and (e)14.4% were prepared. The sensory evaluation was performed by determining which sucrose solution was closest to the solution of derivative 2 in the sweetness intensity. The result of calculation of the average of points of 20 panelists was 2.25 point.
The sweetness intensity of the solution of derivative 2 was 8.75% according to the following equation: (10.0−8.33)×0.25+8.33=8.75. Therefore, the magnification of sweetness intensity of derivative 2 was 5600 (=8.75/0.00155) times that of sucrose. When the same experiment was performed, the magnification of sweetness intensity of derivative 1 was 22600 times that of sucrose.

[5] = Equivalent concentration of bitter taste, sensory evaluation, mixed amino acids (Example 29); assay type: in vivo, human; conditions: 2% mixed amino acids; addition: Derivative 2 10 ppm, Glycyrrhizin 250 ppm, Sucrose 50000 ppm; no addition 0.105
Description: With respect to the solution produced by adding derivative 1 (the product of the present invention), or adding nothing (no addition; the reference product) in the concentration shown in the following table 4 to the amino acid solution (2% solution of arginine by weight), the sensory evaluation was performed (using 10 panelists), and the equivalent concentration of bitter taste was determined. The results were shown in the table 4, wherein the equivalent concentration of bitter taste was shown in the concentration of aqueous solution of anhydrous caffeine which is a substance of bitter taste.
With respect to the solution produced by adding derivative 2, Glycyrrhizin or sucrose (the product of the present invention), or adding nothing (no addition; the-reference product) to 2% (by weight) solution of the mixed amino acids (leucine:valine:isoleucine=1:0.5:0.5 by weight), the sensory evaluation was performed (using 10 panelists), and the equivalent concentration of bitter taste was determined in the same way as that described in Example 28, and shown in the table 5.

[6] = cited from earlier work

SMILES | Similarity index [1] | Similarity index [2] | Amount equivalent to PSE 10% [3] | Amount equivalent to PSE 10% [4] | Equivalent concentration of bitter taste [5] | magnification used for the sweetness intensity of the another sweetener with a high intense sweetness ([6]; values used for calculation in Example 5) | magnification of sweetness intensity (numerical values in brackets) ([6]; values used for calculation in Example 17, sucrose = 1)
COC(=O)[C@H](Cc1ccccc1)NC(=O)[C@H](CC(=O)O)NCCC(C)(C)c1ccc(OC)c(O)c1 [Derivative 3, N-[N-[3-(3-hydroxy-4-methoxyphenyl)-3-methylbutyl]-L-α-aspartyl]-L-phenylalanine 1-methyl ester] | 1.11 | 1.04 | 2.7 mg/1000 ml | 2.3 mg/1000 ml | – | – | –
COC(=O)[C@H](Cc1ccccc1)NC(=O)[C@H](CC(=O)O)NCCC(C)(C)c1ccc(OC)cc1 [Derivative 5, N-[N-[3-(4-methoxyphenyl)-3-methylbutyl] -L-α-aspartyl] -L-phenylalanine 1-methyl ester] | 1.34 | 1.38 | 12.5 mg/1000 ml | 11.9 mg/1000 ml | – | – | –
COC(=O)[C@H](Cc1ccccc1)NC(=O)[C@H](CC(=O)O)NCCCc1ccc(OC)cc1O [Derivative 7, N-[N-[3-(2-hydroxy-4-methoxyphenyl)propyl]-L-α-aspartyl]-L-phenylalanine 1-methyl ester] | 0.90 | 0.86 | 9.4 mg/1000 ml | 9.0 mg/1000 ml | – | – | –
COC(=O)[C@H](Cc1ccccc1)NC(=O)[C@H](CC(=O)O)NCCCc1ccc(O)cc1O [Derivative 9, N-[N-[3-(2,4-dihydroxyphenyl)propyl]-L-α-aspartyl]-L-phenylalanine 1-methyl ester] | 1.00 | 0.77 | 13.3 mg/1000 ml | 12.5 mg/1000 ml | – | – | –
CC1(C)[C@@H](O[C@H]2O[C@H](C(=O)O)[C@@H](O)[C@H](O)[C@H]2O[C@@H]2O[C@H](C(=O)O)[C@@H](O)[C@H](O)[C@H]2O)CC[C@]2(C)[C@H]3C(=O)C=C4[C@@H]5C[C@@](C)(C(=O)O)CC[C@]5(C)CC[C@@]4(C)[C@]3(C)CC[C@@H]12 [Glycyrrhizin] | – | – | – | – | 0.105 g/100 g | 170 times | –
OC[C@H]1O[C@@](CO)(O[C@H]2O[C@H](CO)[C@@H](O)[C@H](O)[C@H]2O)[C@@H](O)[C@@H]1O [Sucrose] | 0 | – | – | – | 0.067 g/100 g | – | 1
